Reference: US5004738A, “1,1-dioxopenicillanoyl oxymethyl D-6-(α-(methyleneamino) phenylacetamido)-penicillanate and a process for the preparation thereof” (priority 1989, dated 1991)
In brackets after ≈: the same amount, converted by molar mass.

Legend:
β-lactamases = details: cited from earlier work
[1] = system: Staphylococcus aureus SG511; experiment: In vitro antibacterial activity test (agar dilution, Mueller Hinton Agar); type: cell-based; details: 18 hours at 37° C.
Protocol: (§1) (1) In vitro antibacterial activity test
(§2) 2 fold dilutions of the testing compounds were employed by using agar dilution method of Mueller Hinton Agar. After 18 hours at 37° C., the susceptibility (MIC) of the test organism was accepted as the lowest concentration of compound capable of producing complete inhibition of growth as judged by the naked eye.

[2] = system: Enterobacter cloacae 132E; experiment: as above; type: cell-based; details: 18 hours at 37° C.
Protocol: as §1, §2

Escherichia coli DC2 = experiment: as above; type: cell-based; details: 18 hours at 37° C.
Protocol: as §1, §2

[3] = system: Streptococcus faecium MD8; experiment: as above; type: cell-based; details: Enterococcus faecium, 18 hours at 37° C.
Protocol: as §1, §2

[4] = system: gram-positive and gram-negative bacteria; details: cited from earlier work

CC1(C)[C@H](C(=O)O)N2C(=O)C[C@H]2S1(=O)=O [sulbactam, 3.3-dimethyl-7-oxo-4thia-1-azabicyclo(3.2.0)heptane-2-carboxylic acid, 4-4-dioxide [2S(2α,5α)]]
inhibition of β-lactamases (β-lactamases; alone): poor inhibitor of β-lactamases
inhibition of the enzymatic hydrolysis of antibiotics (β-lactamases; with β-lactamase inhibiting antibiotics): modest increase in inhibition of the enzymatic hydrolysis of antibiotics

C=N[C@@H](C(=O)N[C@@H]1C(=O)N2[C@@H]1SC(C)(C)[C@@H]2C(=O)OCOC(=O)[C@@H]1N2C(=O)C[C@H]2S(=O)(=O)C1(C)C)c1ccccc1 [compound (I), 1,1-dioxopenicillanoyl oxymethyl D-6-[(α-methyleneamino)phenylacetamido]-penicillanate]
MIC [1]: 0.098 µg/mL (≈ 0.162 µM)
MIC [2]: 1.56 µg/mL (≈ 2.58 µM)
MIC (Escherichia coli DC2): 1.56 µg/mL (≈ 2.58 µM)
MIC [3]: 0.781 µg/mL (≈ 1.29 µM)

C=N[C@@H](C(=O)N[C@@H]1C(=O)N2[C@@H]1SC(C)(C)[C@@H]2C(=O)O)c1ccccc1 [Methanpicillin]
inhibition against gram-positive and gram-negative bacteria [4]: marked increase in inhibition against gram-positive and gram-negative bacteria
